Results on one compound are retold here after US11186606B2, “Compositions and methods of modulating the immune response by activating alpha protein kinase 1” (Shanghai Yao Yuan Biotechnology Co., Ltd., priority 2017, dated 2021).

Molecules are shown by their SMILES.

Assay [1] relates to bovine alkaline phosphatase. The assay is described as follows: Incubation of H1b-ADP with bovine alkaline phosphatase. It counts as biochemical. The text has this:
(§1) FBS contains 110-352 U/ml alkaline phosphatase.

The test system of another assay is ALPK1. The experiment in a line: IL8 secretion in HEK293 cells (IL8 ELISA) as indicator of ALPK1 activation. To be noted: added to the FBS-containing medium, HEK293 cells, IL8 secretion. A general note: In an ELISA, binding on a coated surface is turned into a signal by an enzyme label.
Assay [2] relates to phosphatase activity in the serum. The assay is described as follows: Incubation of H1b-ADP with FBS, product analysed by LC-MS. The format is in vitro ADME, bovine. The settings on record: 1 mM, pre-mixed with H1b-ADP before incubation with FBS.
Description: as §1

In the case of `[Na+].[Na+].[Na+].[O]=[V]([O-])([O-])[O-]` [Na3VO4, sodium orthovanadate], the “phosphatase activity (H1b-ADP hydrolysis)” value in assay [1] is recorded as “blocked by increasing amount of Na3VO4”. Moreover, the “restoration of H1b-ADP's activity in the cell based assay” value in the assay with ALPK1 is listed as “could restore H1b-ADP's activity”. Moreover, the H1b-ADP hydrolysis result in assay [2] is “effectively inhibited H1b-ADP hydrolysis”.
